Results on two compounds are retold here after US20170326188A1, “USES OF PORIA COCOS EPIDERMIS EXTRACT, PORICOIC ACID A, AND PORICOIC ACID B IN REGULATING BLOOD GLUCOSE LEVEL” (SINPHAR PHARMACEUTICAL CO., LTD., priority 2016, published 2017).

Experiment [1] has as its system mouse myocytes (C2C12). Nature of the experiment: Glucose oxidase assay of glucose uptake capability of myocytes. The class given is cell-based. Conditions: C2C12 cells, 0.1, 1 or 10 μg/ml, 2 hours; for relative glucose uptake capability of cells (glucose consumption) compared to the control group: BSA-DMEM medium containing 500 μg/ml glucose. On the procedure: The differentiated mouse myocytes (C2C12, purchased from ATCC) and adipocytes (3T3-L1, purchased from ATCC) were cultivated in a Dulbecco's modified Eagle's medium (DMEM) containing 2% bovine serum albumin (BSA) but serum free for 16 hours respectively. Then, the cells were washed with Dulbecco's phosphate-buffered saline (D-PBS), and medium was replaced with a 0.2% BSA-DMEM medium containing 500 μg/ml glucose. The cells thus provided were used in the following experiments. C2C12 cells provided by [Preparation Examples] were divided into 5 groups and were respectively cultivated with the following mediums for 2 hours: • 1. Group I: a BSA-DMEM medium containing 500 μg/ml glucose. • 2. Group II: a BSA-DMEM medium containing 500 μg/ml glucose and 100 nM insulin. • 3. Group III: a BSA-DMEM medium containing 500 μg/ml glucose and 0.1 μg/ml Poria cocos epidermis extract provided by [Preparation Example A-2]. • 4. Group IV: a BSA-DMEM medium containing 500 μg/ml glucose and 1 μg/ml Poria cocos epidermis extract provided by [Preparation Example A-2]. • 5. Group V: a BSA-DMEM medium containing 500 μg/ml glucose and 10 μg/ml Poria cocos epidermis extract provided by [Preparation Example A-2]. Thereafter, the content of glucose in the medium of each group was determined by a glucose oxidase assay to measure the level of glucose consumption (representing the glucose uptake capability of cells) of each group. Finally, the results of the control group (i.e., cells being cultivated with the medium of Group I) was served as a basis to calculate the relative glucose uptake capabilities of other groups. C2C12 cells provided by [Preparation Examples] were divided into 8 groups and were respectively cultivated with the following mediums for 2 hours: • 1. Group i: a BSA-DMEM medium containing 500 μg/ml glucose. • 2. […] Then, the content of glucose in the medium of each group was determined by a glucose oxidase assay to measure the level of glucose consumption of each group (representing the glucose uptake capability of cells). […]

Experiment [2] concerns mouse adipocytes (3T3-L1). As to the kind of experiment: Glucose oxidase assay of glucose uptake capability of adipocytes. It is filed as cell-based. The note with it: 2 hours; for relative glucose uptake capability of cells (glucose consumption) compared to the control group: 3T3-L1 cells, 0.1, 1 or 10 μg/ml, BSA-DMEM medium containing 500 μg/ml glucose. Here is the method:
The differentiated mouse myocytes (C2C12, purchased from ATCC) and adipocytes (3T3-L1, purchased from ATCC) were cultivated in a Dulbecco's modified Eagle's medium (DMEM) containing 2% bovine serum albumin (BSA) but serum free for 16 hours respectively. Then, the cells were washed with Dulbecco's phosphate-buffered saline (D-PBS), and medium was replaced with a 0.2% BSA-DMEM medium containing 500 μg/ml glucose. The cells thus provided were used in the following experiments. 3T3-L1 cells provided by [Preparation Examples] were divided into 5 groups and were respectively cultivated with the mediums of Groups I to V described in Example 1 (1-1) for 2 hours. Then, the content of glucose in the medium of each group were determined by a glucose oxidase assay to measure the level of glucose consumption of each group (representing the glucose uptake capability of cells). Finally, the results of the control group (i.e., cells being cultivated with the medium of Group I) was served as a basis to calculate the relative glucose uptake capabilities of other groups. 3T3-L1 cells provided by [Preparation Examples] were divided into 8 groups and were respectively cultivated with the mediums of Groups i to v as described in Example 2 (2-1) for 2 hours. Then, the content of glucose in the medium of each group was determined by a glucose oxidase assay to measure the level of glucose consumption of each group (representing the glucose uptake capability of cells). Finally, the results of the control group (i.e., cells being cultivated with the medium of Group i) was served as a basis to calculate the relative glucose uptake capabilities of other groups. FIG. 4A comprises the results of the control group, the positive control group (i.e., cells being cultivated with the medium of Group ii), and the groups being treated with poricoic acid A (i.e., cells being cultivated with the medium of Group iii, iv or v which contains poricoic acid A). FIG. 4B comprises the results of the control group, the positive control group, and the group being treated with poricoic acid B (i.e., cells being cultivated with the medium of Group iii, iv or v which contains poricoic acid B).

The structures appear in SMILES notation.

In the case of `C=C(C)[C@@H]1CC=C2C(=CC[C@]3(C)[C@@H]([C@@H](CCC=C(C)C)C(=O)O)[C@H](O)C[C@@]23C)[C@@]1(C)CCC(=O)O` [poricoic acid B, Poricoic acid B], the “relative glucose uptake capability of cells (glucose consumption) compared to the control group” value in experiment [1] and in experiment [2] was “significantly increased” in each case.
Regarding `C=C(CC[C@@H](C(=O)O)[C@H]1[C@H](O)C[C@@]2(C)C3=CC[C@@H](C(=C)C)[C@](C)(CCC(=O)O)C3=CC[C@]12C)C(C)C` [poricoic acid A, Poricoic acid A], the “relative glucose uptake capability of cells (glucose consumption) compared to the control group” value in experiment [1] is reported as “significantly increased”; in experiment [2] it was “exhibited an increment in the glucose uptake capabilities”. The “glucose uptake capability compared to the positive control group” value in experiment [1] (positive control 100 nM insulin) was “equivalent to that of the positive control group”. For the same compound, the “increment in glucose uptake capability compared to the control group, medium dosage group” value in experiment [2] (3T3-L1 cells, 1 μg/ml) is on record as “significant”. For the same compound, in experiment [2] (3T3-L1 cells, 10 μg/ml), the “increment in glucose uptake capability compared to the control group, high dosage group” value was “significant”.
